Reference: ChEMBL document CHEMBL1144356 (J Med Chem, 2005)

Legend:
[1] = target: T1, Peroxisome proliferator-activated receptor gamma (Homo sapiens, UniProt P37231); test: In vitro binding affinity for PPAR-gamma
T1 sequence (P37231 whole entry): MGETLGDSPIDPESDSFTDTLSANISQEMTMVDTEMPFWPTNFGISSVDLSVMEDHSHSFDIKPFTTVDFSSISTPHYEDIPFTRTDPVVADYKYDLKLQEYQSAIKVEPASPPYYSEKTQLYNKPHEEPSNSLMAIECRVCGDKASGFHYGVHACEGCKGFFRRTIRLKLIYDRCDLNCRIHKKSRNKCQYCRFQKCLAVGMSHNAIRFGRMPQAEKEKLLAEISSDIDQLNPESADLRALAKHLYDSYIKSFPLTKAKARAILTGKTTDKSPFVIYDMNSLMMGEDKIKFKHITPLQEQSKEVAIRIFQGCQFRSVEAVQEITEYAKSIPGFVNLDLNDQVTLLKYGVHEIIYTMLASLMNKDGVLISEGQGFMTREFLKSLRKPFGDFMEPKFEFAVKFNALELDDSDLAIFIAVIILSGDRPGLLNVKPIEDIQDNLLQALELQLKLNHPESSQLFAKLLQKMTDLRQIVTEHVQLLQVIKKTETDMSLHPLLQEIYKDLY

[2] = In vitro binding affinity for PPAR-alpha; set-up: species or system Homo sapiens
[3] = target: T1, Peroxisome proliferator-activated receptor gamma; test: Effective concentration against human PPAR-gamma in Gal4 transactivation assay; 12% response at 3 uM; assay type: functional
[4] = target: T2, Peroxisome proliferator-activated receptor delta (Homo sapiens, UniProt Q03181); test: In vitro binding affinity for PPAR-delta
T2 sequence (Q03181 whole entry): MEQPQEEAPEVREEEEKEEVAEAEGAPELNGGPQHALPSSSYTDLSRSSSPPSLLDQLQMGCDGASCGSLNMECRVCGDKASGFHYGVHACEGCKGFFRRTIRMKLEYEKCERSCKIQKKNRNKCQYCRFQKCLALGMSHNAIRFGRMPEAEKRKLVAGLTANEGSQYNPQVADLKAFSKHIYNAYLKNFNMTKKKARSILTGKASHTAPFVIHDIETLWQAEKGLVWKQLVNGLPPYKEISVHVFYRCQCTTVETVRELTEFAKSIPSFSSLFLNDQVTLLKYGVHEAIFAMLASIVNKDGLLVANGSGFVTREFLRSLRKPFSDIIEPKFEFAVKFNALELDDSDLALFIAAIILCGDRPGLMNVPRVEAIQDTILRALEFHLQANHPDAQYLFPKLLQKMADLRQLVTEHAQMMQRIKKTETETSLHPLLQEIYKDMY

[5] = target: T3, Peroxisome proliferator-activated receptor alpha (Canis lupus familiaris, UniProt Q95N78); test: Effective concentration against canine PPAR-alpha in Gal4 transactivation assay
T3 sequence (Q95N78 whole entry): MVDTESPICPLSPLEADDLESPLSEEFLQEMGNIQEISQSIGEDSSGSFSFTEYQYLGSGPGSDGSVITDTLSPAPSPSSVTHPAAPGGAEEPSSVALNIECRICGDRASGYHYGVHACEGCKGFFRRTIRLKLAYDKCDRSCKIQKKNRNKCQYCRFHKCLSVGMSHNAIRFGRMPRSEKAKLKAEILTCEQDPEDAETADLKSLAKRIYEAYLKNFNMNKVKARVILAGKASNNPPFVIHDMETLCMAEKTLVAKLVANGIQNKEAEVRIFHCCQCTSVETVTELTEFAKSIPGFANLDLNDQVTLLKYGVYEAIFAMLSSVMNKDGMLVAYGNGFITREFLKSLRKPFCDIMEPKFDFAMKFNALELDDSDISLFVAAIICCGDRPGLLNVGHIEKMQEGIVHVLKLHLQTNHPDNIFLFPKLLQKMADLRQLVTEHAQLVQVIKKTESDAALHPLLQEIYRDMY

[6] = target: T1, Peroxisome proliferator-activated receptor gamma; test: Effective concentration against human PPAR-gamma in Gal4 transactivation assay; 56% response at 3 uM; assay type: functional
[7] = target: T4, Peroxisome proliferator-activated receptor alpha (Homo sapiens, UniProt Q07869); test: Effective concentration against human PPAR-alpha in Gal4 transactivation assay; assay type: functional
T4 sequence (Q07869 whole entry): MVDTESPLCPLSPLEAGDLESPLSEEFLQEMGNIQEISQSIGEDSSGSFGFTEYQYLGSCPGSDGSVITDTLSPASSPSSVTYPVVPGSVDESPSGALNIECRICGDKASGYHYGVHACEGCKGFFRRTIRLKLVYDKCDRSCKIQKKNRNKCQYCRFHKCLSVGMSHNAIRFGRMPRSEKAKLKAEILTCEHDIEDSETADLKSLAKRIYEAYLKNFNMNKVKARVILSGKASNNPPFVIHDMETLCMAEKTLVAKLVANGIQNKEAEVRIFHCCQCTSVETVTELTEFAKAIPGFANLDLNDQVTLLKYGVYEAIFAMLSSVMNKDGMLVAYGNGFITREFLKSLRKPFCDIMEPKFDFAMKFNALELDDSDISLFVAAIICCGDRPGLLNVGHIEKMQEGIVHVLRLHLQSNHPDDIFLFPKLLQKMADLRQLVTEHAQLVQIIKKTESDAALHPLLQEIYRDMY

[8] = target: T1, Peroxisome proliferator-activated receptor gamma; test: Effective concentration against human PPAR-gamma in Gal4 transactivation assay; 59% response at 3 uM; assay type: functional
[9] = target: T1, Peroxisome proliferator-activated receptor gamma; test: Effective concentration against human PPAR-gamma in Gal4 transactivation assay; assay type: functional
[10] = target: T1, Peroxisome proliferator-activated receptor gamma; test: Effective concentration against human PPAR-gamma in Gal4 transactivation assay; 2% response at 3 uM; assay type: functional
[11] = target: T1, Peroxisome proliferator-activated receptor gamma; test: Effective concentration against human PPAR-gamma in Gal4 transactivation assay; 19% response at 3 uM; assay type: functional
[12] = target: T1, Peroxisome proliferator-activated receptor gamma; test: Effective concentration required to produce 50% of maximal reporter activity in cell based transactivation assay using human PPAR-gamma-GAL4 chimeric receptor; 6% response at 3 uM ccompound concentration; assay type: functional
[13] = target: T1, Peroxisome proliferator-activated receptor gamma; test: Effective concentration against human PPAR-gamma in Gal4 transactivation assay; 30% response at 3 uM; assay type: functional
Canis familiaris [14] = test: Effect on cholesterol lowering in male Beagle dog at an oral dose of 50 mkd for 7 days; assay type: functional, Canis lupus familiaris
Canis familiaris [15] = test: Effect on cholesterol lowering in male Beagle dog at an oral dose of 50 mkd for 3 days; assay type: functional, Canis lupus familiaris
Canis familiaris [16] = test: Effect on cholesterol lowering in male Beagle dog at an oral dose of 50 mkd for 15 days; assay type: functional, Canis lupus familiaris
Cricetinae gen. sp. [17] = test: Effect at an oral dose of 100 mg/kg/day for 14 days on serum cholesterol level of hamster; assay type: functional, Cricetulus griseus
Canis familiaris [18] = test: Effect on cholesterol lowering in male Beagle dog at an oral dose of 50 mkd for 10 days; assay type: functional, Canis lupus familiaris
Cricetinae gen. sp. [19] = test: Effect at an oral dose of 100 mg/kg/day for 14 days on serum triglyceride level of hamster; assay type: functional, Cricetulus griseus
Canis familiaris [20] = test: Effect on cholesterol lowering in male Beagle dog at an oral dose of 4 mkd for 10 days; assay type: functional, Canis lupus familiaris
Canis familiaris [21] = test: Effect on cholesterol lowering in male Beagle dog at an oral dose of 4 mkd for 15 days; assay type: functional, Canis lupus familiaris
Canis familiaris [22] = test: Effect on cholesterol lowering in male Beagle dog at an oral dose of 4 mkd for 3 days; assay type: functional, Canis lupus familiaris
Canis familiaris [23] = test: Effect on cholesterol lowering in male Beagle dog at an oral dose of 4 mkd for 7 days; assay type: functional, Canis lupus familiaris

Row | IC50 [1] [nM] | IC50 [2] [nM] | IC50 [4] [nM] | EC50 [5] [nM] | EC50 [7] [nM] | Structure (SMILES) | further results
1 | 5600 | 4 | > 50000 | 2 | – | CCC1(C(=O)O)Cc2cc(OCCCOc3ccc(CC(C)(C)C)cc3Cl)ccc2O1 (racemic) | EC50 [3]: > 3000 nM
2 | 4330 | 17 | > 15000 | 20 | 9 | CCC1(C(=O)O)Cc2cc(OCCCOc3ccc(C(C)(C)C)cc3Cl)ccc2O1 (racemic) | EC50 [6]: > 3000 nM
3 | 3110 | 11 | 5230 | < 1 | 8 | CCCc1cc(SC(F)(F)F)ccc1OCCCOc1ccc2c(c1)CC(CC)(C(=O)O)O2 (racemic) | EC50 [8]: > 3000 nM
4 | > 15000 | 106 | > 15000 | 42 | 138 | CC1(C(=O)O)Cc2cc(OCCCOc3ccc(OCC(F)(F)F)cc3Cl)ccc2O1 (racemic) | EC50 [9]: > 3000 nM
5 | > 15000 | 32 | > 15000 | 8 | 34 | CCC1(C(=O)O)Cc2cc(OCCCOc3ccc(OCC(F)(F)F)cc3Cl)ccc2O1 (racemic) | EC50 [11]: > 3000 nM
6 | > 15000 | 275 | > 50000 | – | – | O=C(O)C1(Cc2ccccc2)Cc2cc(OCCCOc3ccc(OC(F)(F)F)cc3Cl)ccc2O1 (racemic) | –
7 | > 15000 | 786 | > 15000 | 1350 | – | O=C(O)C1Cc2cc(OCCCOc3ccc(OCC(F)(F)F)cc3Cl)ccc2O1 (racemic) | –
8 | > 15000 | 7 | > 50000 | 2 | – | CC(C)(C)C1(C(=O)O)Cc2cc(OCCCOc3ccc(CC(F)(F)F)cc3Cl)ccc2O1 (racemic) | EC50 [12]: > 3000 nM
9 | 6770 | 3 | > 15000 | < 1 | 3 | CCC1(C(=O)O)Cc2cc(OCCCOc3ccc(SC(F)(F)F)cc3Cl)ccc2O1 (racemic) | EC50 [13]: > 3000 nM
10 | – | – | – | – | – | CC(C)OC(=O)C(C)(C)Oc1ccc(C(=O)c2ccc(Cl)cc2)cc1 [FENOFIBRATE] | TC (Canis familiaris [14]): -5.5%; TC (Canis familiaris [15]): -2.2%; TC (Canis familiaris [16]): -12.3%; TC (Cricetinae gen. sp. [17]): -28.55%; TC (Canis familiaris [18]): -5.9%; TG (Cricetinae gen. sp. [19]): -24.08%
11 | – | – | – | – | – | CCC(C)(C)C(=O)O[C@H]1C[C@@H](C)C=C2C=C[C@H](C)[C@H](CC[C@@H]3C[C@@H](O)CC(=O)O3)[C@H]21 [SIMVASTATIN] | TC (Canis familiaris [20]): -9.9%; TC (Canis familiaris [21]): -17.1%; TC (Canis familiaris [22]): -7.8%; TC (Canis familiaris [23]): -13.3%

Row | Structure (SMILES) | IC50 [1] [nM] | IC50 [2] [nM] | IC50 [4] [nM] | EC50 [5] [nM] | EC50 [7] [nM] | further results
12 | O=C(O)C1(C(F)(F)F)Cc2cc(OCCCOc3ccc(CC(F)(F)F)cc3Cl)ccc2O1 (racemic) | > 15000 | 9 | 399 | 26 | 37 | EC50 [10]: > 3000 nM
